Assays:
Assay type in all cases: cell-based, human
caspase 8 = test: Caspase 8 level in SiHa cells by immunoblot; conditions: 24 h
Method: (§1) Figure 6 Treatment with myricetin and spinacine (5) increases cellular levels of caspase 8 and p53. (a) SiHa cells (1 × 10^6 per well) were seeded into a six-well plate and allowed to incubate overnight. The indicated concentrations of myricetin and spinacine were added, and then cells were incubated for 24 h. Cells were then washed in 1 × PBS and then harvested, and the resulting level of caspase 8 was measured by immunoblot. (b) SiHa and C33A cells (1 × 10^6 per well) were seeded into a six-well plate and allowed to incubate overnight. In all, 200 μM of myricetin and 100 μM spinacine were added together with 4 μg/ml mitomycin C and incubated for 24 h. The resulting level of p53 was measured by enzyme-linked immunosorbent assay, and the level of p53 found in untreated cells was set at 100%. Experiments were performed in triplicate, and error bars indicate the S.D.
Cells (1 × 10^6) were collected and washed with PBS. All liquid was removed by centrifugation at 3000 r.p.m. for 5 min at 4 °C. […] Signals were measured using the Odyssey Infrared Imaging system (LI-COR Biosciences) and expressed in relative light units.

SCC84 = test: TRAIL-induced cell death in HPV− HNSCC line SCC84 (MTT); conditions: HPV− #84, myricetin 0–200 μM or spinacine 0–100 μM, 50 ng/ml TRAIL
Method: Figure 7 Myricetin and spinacine (5) can re-sensitize HPV^+, but not HPV^−, head and neck cancer cell lines to treatment with TRAIL. (a) Both HPV^− and HPV^+ HN cancer cell lines display resistance to TRAIL treatment. (b) HPV^− (UMSCC 29 and SCC 84) and (c) HPV^+ (UMSCC 47, UPCI-SCC90-UP-Clone 35, and UM-SCC47-TC-Clone 3) head and neck cancer cell lines (2 × 10^4 cells per well) were seeded into 96-well plates and allowed to incubate overnight, and then cells were pretreated with myricetin (0–200 μM) or spinacine (0–100 μM) for 4 h. […] Cell viability was measured by the MTT assay, and the viability of cells untreated with small molecules was set at 100%. Experiments were performed in triplicate, and error bars indicate the S.D.
The extracellular domain of human TRAIL was cloned into a pTriEx expression plasmid containing N-terminal Hisx6 tag. His-TRAIL was expressed in the E. coli BL-21 pLys strain and purified as previously described. Doxorubicin and cisplatin were purchased from Sigma. His-TRAIL, doxorubicin, and cisplatin were diluted in PBS to the desired concentration before using. […] All experiments were repeated at least three times (three biological replicates, carried out on different days), with each experimental group measured in triplicate within each of these individual experiments. […]

p53 = p53 ELISA in SiHa cells; conditions: with 4 μg/ml mitomycin C, 24 h
Method: as §1
The p53 ELISA was performed as described previously,[26] with some modifications. Antibodies secreted by clone pAb122 (hybridoma obtained from ATCC, antibodies purified from the culture medium using protein-A Sepharose) were used as monoclonal capture antibodies. […] The average and S.D. of the replicates (a minimum of three) were calculated, normalized to the control, and used to prepare the graph.

| SMILES | caspase 8 level (caspase 8; spinacine at 50 to 200 μM) | response to TRAIL in presence and absence of compound (SCC84) | increase in p53 compared with untreated cells (p53; 100 μM) | caspase 8 level (caspase 8; myricetin at 100 and 200 μM) | increase in p53 compared with untreated cells (p53; 200 μM) |
| --- | --- | --- | --- | --- | --- |
| O=C(O)C1Cc2[nH]cnc2CN1 (stereo not drawn) [Spinacine (5), 4,5,6,7-tetrahydro-1H-imidazo[4,5–c]pyridine-6-carboxylic acid] | increase | resistant | 3.4 fold |  |  |
| O=c1c(O)c(-c2cc(O)c(O)c(O)c2)oc2cc(O)cc(O)c12 [Myricetin, myricetin, reference compound] |  | resistant |  | increase | 4.4 fold |
